Data from patent US8748566B2, “Pharmacologically active antiviral peptides and methods of use” (priority 2000, dated 2014).

Experiments:
HSV-1 KOS virions = test: Electron microscopy of peptide-treated virions (aggregation); conditions: 25 μM peptide, purified virus particles
Experimental: Purified HSV-1 KOS virions (2.5×10^7 pfu/ml) according to Visalli et al., Virus Res. 29:167 (1993) were treated with 25 μM antiviral peptide SEQ ID NO:1 or the control peptide EBX (SEQ ID NO: 17) in 40 μl serum-free DMEM buffered with 25 mM Hepes (pH 7.4) for 5 to 60 min at 4 or 23° C. Aliquots (10 μl) were adsorbed to pioloform poly-L-lysine-coated grids for 5 min at 23° C. Grids were rinsed with PBS, stained with 2% phosphotungstic acid (PTA) in water adjusted to pH ˜6 and air dried. Alternatively, virus was pre-adsorbed to grids and treated with peptides thereafter. A total of 4×10^9 pfu/ml of purified HSV-1 KOS in 5 μl PBS was applied to the coated grids for 5 min at 23° C., and the grids were rinsed once with serum-free DMEM buffered with 25 mM Hepes (pH 7.4) and treated with 15 μl of 5 mM EB or EBX in the same medium for 30 min at 37° C. The pH of highly concentrated solutions of antiviral peptide SEQ ID NO:1 and EBX was re-adjusted to 7.4 with NaOH prior to use. To prevent evaporation of the peptide-containing solutions, each grid was held in a Hiraoka flexible staining plate and covered with miniature bell jar made from an 0.5 ml polypropylene micro-centrifuge tubes, small enough for the 15 μl to fill half of the bell jar facing the coated surface of the grid. The entire assembly was then incubated in a moist chamber for 30 min at 37° C. […]

hrR3 [1] = test: LacZ+ virus (hrR3) entry assay; assay type: cell-based
Experimental: Confluent Vero cell cultures in 96-well microtiter plates were switched to Hepes-buffered serum-free DMEM, cooled on ice to 4° C. for 30 min, and infected with hrR3 for 1 hour at 4° C. in 40 μl of medium. Unattached virus was removed by rinsing with ice-cold medium. Treatments with antiviral peptide SEQ ID NO:1, referred to as EB, or a control peptide which comprised the RRKK tetra-peptide (SEQ ID NO:16) attached to a scrambled version of the membrane transiting peptide RRKKLAALPLVLAAPLAVLA (SEQ ID NO:17) (referred to as EBX), or mock-treatments with peptide-free medium were carried out in serum-free DMEM as indicated. Virus entry was initiated by transferring cultures to 37° C. To inactivate any remaining extracellular virus, cultures were rinsed with PBS and exposed to low pH citrate buffer (40 mM citric acid, 10 mM KCl, 135 mM NaCl, pH 3.0, according to Highlander et al., J. Virol. 61:3356 (1987), for 1 min at 23° C. The citrate was rinsed off with PBS and cultures were maintained in serum-supplemented DMEM until they were fixed with 0.5% gluteraldehyde in 5×PBS for 30 min at 23° C., stained for β-galactosidase activity for 1 hour or overnight at 23° C. with X-gal (Fisher Biotech; BP 1615-1) in 1×PBS containing […], 1.3 mM K4Fe(CN)6, and 1.3 mM K3Fe(CN)6, and scored for the presence of blue lacZ^+ cells.
In these studies, the hrR3 virus was pre-adsorbed to cells for 1 hour at 4° C. before ice cold 25 μM EB or EBX were added in serum-free DMEM. After an additional 1 hour at 4° C., cultures were shifted to 37° C. to initiate virus entry. At 15 min intervals following the temperature shift, any virus remaining outside the cells was inactivated by washing the cultures with low pH citrate buffer. Cultures were then rinsed and returned to peptide-free serum-supplemented DMEM until they were fixed and stained for f-galactosidase 8 hours after the temperature shift.
This conclusion is strengthened by the finding that the EB-sensitive phase of infection with pre-adsorbed virus clearly precedes expression of lacZ genes in hrR3 infected cells (FIG. 7A). Again, hrR3 was pre-adsorbed to cells for 1 hour at 4° C., unattached virus was rinsed off, and cells were kept for an additional hour at 4° C. Cultures were then transferred to 23° C. for 30 min before they were switched to 37° C. The more gradual change to 37° C. allowed cell layers to remain intact through subsequent frequent medium changes. Immediately following viral adsorption, cells were treated with 50 μM EB for 1 hour periods at consecutive 1 hour intervals. Between 1 and 4 hours post-infection, virus entry was inhibited by 70-80%. […] Parallel cultures were immediately fixed after mock-treatments and stained with X-gal. In these cultures, blue (lacZ^+) cells first appeared 7 hours post-infection and their number increased nearly linearly for the next 3 hours (FIG. 7A, (∘)). By 7 hours post-infection, EB ceased to be inhibitory.

hrR3 [2] = test: Virucidal assay; assay type: cell-based; conditions: overnight dialysis against serum-containing medium
Experimental: […] The treated virus was diluted 200-fold with serum-supplemented DMEM and assayed for infectivity approximately 1 hour later in microtiter wells seeded with Vero cells (3.5×10^4 cells/well) 1 d earlier. Forty or 100 microliter volumes of diluted virus were adsorbed for 1 or 2 h at 37° C. and lacZ^+ cells were scored 8 hours later. In some experiments, aliquots of diluted virus were first dialyzed (Spectra/Por; MWCO 12-14,000) overnight at 4° C. against a 60-fold excess volume of Hepes-buffered serum-supplemented DMEM or forced by syringe through 0.22 μm membranes (Millex-GV; Millipore) before the remaining infectious virus was assayed.

HSV-1 KOS = test: Yield reduction assay (virus production in infected Vero cells); assay type: cell-based; conditions: added one hour prior to infection; EB statement for concentrations exceeding 10 μM (FIG. 3)
Experimental: Three days post-infection, Vero cell cultures in microtiter plates were frozen (−80° C.) and thawed (37° C.) three times. Cells were suspended by repeated pipetting and microtiter plates were spun for 10 min at 700×g in a Beckman model TJ-6 tabletop centrifuge. The virus-containing supernates were serially diluted in regular medium and titered on Vero cells. Plaques were counted after staining the monolayers with crystal violet as taught by Grau et al., Invest. Ophthalmol. Vis. Sci. 30:2474 (1989).
Vero cell cultures as prepared in Example 1 were infected with HSV-1 and assayed for virus production as described in Example 1. The antiviral activity of an antiviral peptide according to the present invention EB (SEQ ID NO:1) was compared to the antiviral activity of the current HSV antiviral nucleoside standard, acyclovir. The two peptides were added to the Vero cells one hour prior to infection with HSV.

H-RRKKAAVALLPAVLLALLAP-OH [EB]
state of virus particles by electron microscopy (HSV-1 KOS virions): nearly all of the particles were seen in relatively few large aggregates
inhibition of virus entry (hrR3 [1]; 50 μM EB for 1 hour periods, between 1 and 4 hours post-infection (FIG. 7A)): 70-80%
effect on development of lacZ+ cells (hrR3 [1]; peptide added immediately after each citrate treatment (FIG. 6B)): no longer had any effect
reversibility of virion inactivation (hrR3 [2]): irreversibly inactivated
antiviral activity, EB compared with acyclovir (HSV-1 KOS): greatest antiviral activity
